Experimental data taken from the NIST ThermoML archive (doi:10.1021/acs.jced.7b01006).

What was measured:
[1] = xn = mol fraction of the nth substance listed; settings: 100 kPa, Liquid, x2 = 0; for viscosity: Falling or rolling sphere viscometry; for mass density: Vibrating tube method
[2] = for viscosity / mass density / electrical conductivity: 100 kPa, Liquid; for viscosity: Falling or rolling sphere viscometry; for mass density: Vibrating tube method; for electrical conductivity: Alternating current cell with electrodes; for surface tension liquid-gas: Wilhelmy plate

CC#N [acetonitrile] + CCCCn1cc[n+](C)c1C.N#C[S-]
[1]
Settings	mass density [kg/m3]	viscosity [mPa·s]
288.15 K	787.58	0.376
293.15 K	781.89	0.357
298.15 K	776.52	0.339
303.15 K	771.12	0.324
308.15 K	765.83	0.309
313.15 K	760.36	0.295
318.15 K	755.14	0.283
323.15 K	749.44	0.272

CC#N [acetonitrile]
[2]
Settings	mass density [kg/m3]	viscosity [mPa·s]
288.15 K	787.58	0.376
293.15 K	781.89	0.357
298.15 K	776.52	0.339
303.15 K	771.12	0.324
308.15 K	765.83	0.309
313.15 K	760.36	0.295
318.15 K	755.14	0.283
323.15 K	749.44	0.272

CCCCn1cc[n+](C)c1C.N#C[S-] [1-butyl-2,3-dimethylimidazolium thiocyanate]
[2]
Settings	electrical conductivity [S/m]	mass density [kg/m3]	surface tension liquid-gas [mN/m]	viscosity [mPa·s]
288.15 K	0.106	1084.2	–	452.7
293.15 K	0.153	1081.11	–	311.3
298.15 K	0.217	1078.2	44.8	218
303.15 K	0.293	1075.18	–	157.9
308.15 K	0.386	1072.16	–	118.9
313.15 K	0.496	1069.15	–	90.46
318.15 K	0.627	1066.16	–	72.04
323.15 K	0.774	1063.2	–	57.11

CCC[n+]1ccn(C)c1C.N#C[S-] [1,2-dimethyl-3-propylimidazolium thiocyanate]
[2]
Settings	electrical conductivity [S/m]	mass density [kg/m3]	surface tension liquid-gas [mN/m]	viscosity [mPa·s]
288.15 K	0.255	1099.81	–	316.5
293.15 K	0.361	1096.75	–	215.8
298.15 K	0.459	1093.67	48.8	151.9
303.15 K	0.583	1090.61	–	110.1
308.15 K	0.733	1087.57	–	83.42
313.15 K	0.905	1084.55	–	64.78
318.15 K	1.1	1081.54	–	50.96
323.15 K	1.33	1078.54	–	41.55

CC#N [acetonitrile] + CCC[n+]1ccn(C)c1C.N#C[S-]
[1]
Settings	mass density [kg/m3]	viscosity [mPa·s]
288.15 K	787.58	0.376
293.15 K	781.89	0.357
298.15 K	776.52	0.339
303.15 K	771.12	0.324
308.15 K	765.83	0.309
313.15 K	760.36	0.295
318.15 K	755.14	0.283
323.15 K	749.44	0.272
